Source: patent US7008627B1, “Use of complexes for the preparation of compositions for the treatment of sensitive skin, preparation process and hypoallergenic compositions” (Johnson & Johnson Consumer France, priority 1996, dated 2006)
Several values for one entry are separate records, joined by “and”; a condition that tells them apart may be missing. Equal entries are not always repeated. One block for each substance: values may come before it.

Experiments:
[1] = test system: nitro derivatives (NO2^−); test: Production of nitro derivatives by macrophages after stimulation by IL-4 and IgE-containing immune complexes; format: cell-based, human; details: for Production of nitro derivatives (NO2^−): macrophages stimulated by IgE-containing immune complexes (IL-4), Expt-1 to Expt-4
Description: (§1) To evaluate the allergic inflammation, the cells are activated by IL-4, which induces the CD23 receptor, and then by IgE-containing immune complexes. In all cases, the cellular supernatants are analysed after the activation.
(§2) The following products were used during this study: Escherichia coli LPS (Sigma), used at 1 μg/ml. IFN-γ and IL-4 are sourced from Immugenex (Los Angeles Calif.) and are used respectively at 1000 U/ml and 10 ng/ml, the monoclonal IgEs are sourced from Stallergene (Fresnes, France) and the anti-IgEs are from Nordic (Tilburg, Holland).
(§3) The macrophage cells are obtained from the peripheral blood of normal donors (non-allergic). The mononuclear cells are isolated on a ficoll gradient and the ring of lymphoid cells is recovered and washed three times and the cells are then cultured so as to cause the macrophage cells to adhere. These cells are recovered after adhering for 1 hour and are cultured (10^6 cells/ml/well). If appropriate, in the case of stimulation by IL-4, the presence of the IgE receptor (CD23) at the surface of the cells is verified by immunolabelling.
(§4) The cells are activated by the combination of IFN-γ and LPS for 3 to 4 days and the supernatants of these cultures are then recovered in order to quantitatively determine the nitrogeneous derivatives and TNF-α. Likewise, during stimulation by IgE, the cells are first activated by IL-4, so as to induce the CD23, and are then subsequently cultured and stimulated by the IgE-containing immune complexes for 3 to 5 days before recovering the different supernatants. In all the cases, cellular viability is achieved on conclusion of these cultures. In the specific case of macrophages, a long-term (7 to 12 days) viability study was carried out, so as to determine the protective effects of these products. Quantitative determination of the nitrogenous derivatives is carried out using the Griess approach and the TNF level is measured by using quantitative determination kits from Medgënix (Fleurus, Belgium).
On completion of this culturing period, 30 to 80% of the keratinocytes and of the macrophages express CD23. The individual variations are in no case the reflection of a different allergic situation between these individuals.
After the CD23 has been taken up by IgE-containing immune complexes, the production of a large number of mediators and cytokines (in particular TNF) and of products resulting from the oxidative metabolism, such as nitrogenous derivatives, is induced. This stimulation redefines in vitro an allergic-type inflammatory reaction.
(§5) On completion of this culturing period, 30 to 80% of the keratinocytes and of the macrophages express CD23. The individual variations are in no case the reflection of a different allergic situation between these individuals. […]

[2] = test system: nitro derivatives (NO2^−); test: Production of nitro derivatives by keratinocytes after stimulation by IFN-γ + LPS; format: cell-based, human; details: for Production of nitro derivatives (NO2^−), value between brackets / Production of nitro derivatives (NO2^−): Table 5A, + 10 mg/ml of the product; for Production of nitro derivatives (NO2^−), value between brackets: keratinocytes not stimulated by IFN-γ + LPS; for Production of nitro derivatives (NO2^−): keratinocytes stimulated by IFN-γ + LPS, Expt-1 to Expt-4; for effect on the production of nitro derivatives / NO: keratinocytes stimulated by IFN-γ and LPS
Description: (§6) The activities of the test products are therefore investigated with respect to human macrophage and keratinocyte cultures which are or are not stimulated by intereferon-γ+lipopolysaccharide (non-specific inflammation or by IL-4 (allergic inflammation). This type of stimulation places the cells in the context of a pro-oxidizing response (generation of NO or superoxide anion free radicals, which can be evaluated by measuring the production of nitrogeneous derivatives) and an immuno-inflammatory response (production of cytokines such as TNF-α).
as §2
(§7) The confluent keratinocyte cultures are trypsinized and transferred into 24-well plates in fresh medium at the cellular density of 10^5 cells/ml/well. If appropriate, in the case of stimulation by IL-4, the presence of the IgE receptor (CD23) at the surface of the cells is verified by immunolabeling.
as §4
(§8) In this study, the product H37 (10 mg/ml) is added 30 min before stimulation by IFN-γ+LPS.
(§9) In this study, the products (10 mg/ml or 1/100 v/v) are added 30 min before stimulation by IFN-γ+LPS. In none of the cases have these products shown a cytotoxic activity.

[3] = test system: TNF; test: Production of TNF by macrophages after stimulation by IFN-γ + LPS; format: cell-based, human; details: for effect on the production of TNF: macrophages stimulated by IFN-γ and LPS
Description: as §6, §2, §3
as §4, with “In all the cases, cellular viability is achieved on conclusion of these cultures. In the specific case of macrophages, a long-term (7 to 12 days) viability study was carried out, so as to determine the protective effects of these products.” left out, “Belgium). […]” for “Belgium).”

[4] = test system: TNF; test: Production of TNF by keratinocytes after stimulation by IL-4 and IgE-containing immune complexes; format: cell-based, human
Description: as §1, §2, §7, §4, §5

[5] = test system: TNF; test: Production of TNF by macrophages after stimulation by IL-4 and IgE-containing immune complexes; format: cell-based, human
Description: as §1, §2
as §3, with “If appropriate, in the case of stimulation by IL-4, the presence of the IgE receptor (CD23) at the surface of the cells is verified by immunolabelling.” left out
(§10) The cells are activated by the combination of IFN-γ and LPS for 3 to 4 days and the supernatants of these cultures are then recovered in order to quantitatively determine the nitrogeneous derivatives and TNF-α. […] Quantitative determination of the nitrogenous derivatives is carried out using the Griess approach and the TNF level is measured by using quantitative determination kits from Medgënix (Fleurus, Belgium). […]

[6] = test system: nitro derivatives (NO2^−); test: Production of nitro derivatives by keratinocytes after stimulation by IL-4 and IgE-containing immune complexes; format: cell-based, human
Description: as §1, §2, §7, §10

[7] = test system: TNF; test: Production of TNF by keratinocytes after stimulation by IFN-γ + LPS; format: cell-based, human; details: for Production of TNF: keratinocytes stimulated by IFN-γ + LPS, Expt-1 to Expt-4; for effect on the production of TNF: keratinocytes stimulated by IFN-γ and LPS
Description: as §6, §2, §7, §4, §8, §9

[8] = test system: keratinocytes; test: Dose effect of K18 on the inflammatory functions of the keratinocytes (FIG. 1); format: cell-based, human
Description: FIG. 1: Dose effect of carboxymethyl-β-glucan with respect to the inflammatory functions of the keratinocytes.
Consequently, the effects of the product K18 were evaluated as a function of the dose. The results are illustrated in FIG. 1.

[9] = test system: keratinocytes and macrophages; test: Overall anti-inflammatory activity (non-specific and allergic) on stimulated keratinocytes and macrophages; format: cell-based, human; details: conclusion from the IFN-γ + LPS (non-specific) and IL-4/IgE (allergic) models
Description: as §6, §1
The cells are activated by the combination of IFN-γ and LPS for 3 to 4 days and the supernatants of these cultures are then recovered in order to quantitatively determine the nitrogeneous derivatives and TNF-α. […] Quantitative determination of the nitrogenous derivatives is carried out using the Griess approach and the TNF level is measured by using quantitative determination kits from Medgënix (Fleurus, Belgium).

[10] = test system: nitro derivatives (NO2^−); test: Production of nitro derivatives by macrophages after stimulation by IFN-γ + LPS; format: cell-based, human; details: for Production of nitro derivatives (NO2^−), value between brackets: Table 5A, macrophages not stimulated by IFN-γ + LPS, + 10 mg/ml of the product; for effect on the production of nitro derivatives: macrophages stimulated by IFN-γ and LPS
Description: as §6, §2, §3, §4, §8, §9

[11] = test system: glutathione peroxidase; test: Summary table: anti-free radicals activity, glutathione peroxidase; details: result in words
Description: (§11) Enzymes which are active in endogenous defence systems against free radicals are, for example, SOD (or superoxide -disumtase), catalase or glutathione peroxidase; attempts will be made to stimulate the production of these enzymes or they can be introduced exogeneously.

[12] = test system: mixed lympho-epidermal cultures (MLEC); test: Summary table: anti-allergic activity, mixed lympho-epidermal cultures (MLEC), lymphocyte proliferation; format: cell-based; details: result in words
Description: The activity of the components is also confirmed on mixed lympho-epidermal cultures (MLEC).
In the skin, Langherans cells indeed play an essential role in the […] of the antigen and keratinocytes generate factors which are involved in the immune response, thus constituting a cutaneous immune system. MLECs make it possible to determine the immuno-modulatory properties of substance by measuring the lymphocyte proliferation induced by the antigen-presenting allogenic epidermal cells, with or without treatment by the substance.

[13] = test system: peroxidation of the lipids; test: Summary table: anti-free radicals activity, peroxidation of the lipids; details: result in words
[14] = test system: IL-1α; test: Summary table: anti-inflammatory activity, IL-1α; format: cell-based; details: result in words
Description: (§12) It is possible in particular to operate on keratinocytes and macrophage cells because these are cells which are essential for the development of a local inflammatory reaction. Moreover, macrophages are particularly advantageous cells because, due to the fact that these are resident cells in the skin, they regulate not only local inflammatory reactions but they also regulate the immune responses by their ability to present the antigen and to produce a great number of cytokines which regulate local immunity. These macrophages are also involved in communications with the circulatory system which can, if appropriate, mobilize different cell types (monocytes, neutrophils, eosinophils and T lymphocytes), thus increasing the non-specific and specific defensive power of the tissue under consideration.
as §6

[15] = test system: PGE2; test: Summary table: anti-inflammatory activity, PGE2; format: cell-based; details: result in words
Description: as §12, §6

[16] = test system: TNF-α; test: Summary table: anti-inflammatory activity, TNF-α; format: cell-based, human; details: result in words
Description: as §12, §6

[17] = test system: LTB4; test: Summary table: anti-inflammatory activity, LTB4; format: cell-based; details: result in words
Description: as §12, §6

[18] = test system: NO; test: Summary table: anti-free radicals activity, NO; format: cell-based, human; details: result in words
Description: as §12, §6

[19] = test system: catalase; test: Summary table: anti-free radicals activity, catalase; details: result in words
Description: as §11

[20] = Table 6A, + 10 mg/ml of the product
[21] = keratinocytes stimulated by IL-4
[22] = Table 5B, + 10 mg/ml of the product

Substance: Carboxymethyl-β-glucan [K18]
- Production of nitro derivatives (NO2^−), value between brackets ([1]; Table 6A, macrophages not stimulated by IgE-containing immune complexes, + 10 mg/ml of the product): 2 µM and 4 µM
- Production of nitro derivatives (NO2^−) [1, 20]: 7 µM and 6 µM and 10 µM
- effect on the production of nitro derivatives ([1]; macrophages stimulated by IL-4): inhibitory activity
- Production of nitro derivatives (NO2^−), value between brackets [2]: 1 µM
- Production of nitro derivatives (NO2^−) [2]: 13 µM and 14 µM and 11 µM and 7 µM
- effect on the production of nitro derivatives / NO [2]: high ability to inhibit
- effect on the production of TNF [3]: efficiently inhibit
- effect on the production of TNF [4, 21]: inhibitory activity
- effect on the production of TNF ([5]; macrophages stimulated by IL-4): inhibitory activity
- Production of nitro derivatives (NO2^−), value between brackets ([6]; Table 6A, keratinocytes not stimulated by IgE-containing immune complexes, + 10 mg/ml of the product): 2 µM and 4 µM
- effect on the production of nitro derivatives [6, 21]: inhibitory activity
- Production of TNF [7, 22]: 130 pg/mL and 95 pg/mL and 85 pg/mL and 82 pg/mL
- effect on the production of TNF [7]: efficiently inhibit
- generation of TNF as a function of the dose [8]: inhibits, in a dose-dependent way
- generation of nitro derivatives as a function of the dose [8]: inhibits, in a dose-dependent way
- anti-inflammatory activity [9]: non-specific and allergic-type anti-inflammatory activity
- Production of nitro derivatives (NO2^−), value between brackets [10]: 1 µM and 2 µM
- effect on the production of nitro derivatives [10]: high ability to inhibit

Substance: poly-β(1→3)-glucopyranose [K17]
- Production of nitro derivatives (NO2^−) [1, 20]: 16 µM and 17 µM and 19 µM and 30 µM
- Production of nitro derivatives (NO2^−), value between brackets [2]: 2 µM and 1 µM
- Production of nitro derivatives (NO2^−) [2]: 15 µM and 16 µM and 8 µM
- effect on the production of nitro derivatives / NO [2]: high ability to inhibit
- Production of TNF ([3]; Table 5B, macrophages stimulated by IFN-γ + LPS, + 10 mg/ml of the product, Expt-1 to Expt-4): 605 pg/mL and 902 pg/mL and 970 pg/mL and 695 pg/mL
- effect on the production of TNF [3]: efficiently inhibit
- Production of TNF, value between brackets ([4]; Table 6B, keratinocytes not stimulated by IgE-containing immune complexes, + product): 35 pg/mL and 31 pg/mL and 32 pg/mL and 40 pg/mL
- Production of TNF ([4]; Table 6B, keratinocytes stimulated by IL-4 / IgE-containing immune complexes, + product, Expt-1 to Expt-4): 185 pg/mL and 111 pg/mL and 120 pg/mL and 132 pg/mL
- Production of TNF, value between brackets ([5]; Table 6B, macrophages not stimulated by IgE-containing immune complexes, + product): 45 pg/mL and 41 pg/mL and 32 pg/mL
- Production of TNF, value between brackets ([7]; Table 5B, keratinocytes not stimulated by IFN-γ + LPS, + 10 mg/ml of the product, ND = non-detectable): 95 pg/mL
- Production of TNF [7, 22]: 125 pg/mL and 98 pg/mL and 100 pg/mL and 70 pg/mL
- effect on the production of TNF [7]: efficiently inhibit
- anti-inflammatory activity [9]: only has a non-specific anti-inflammatory activity
- Production of nitro derivatives (NO2^−), value between brackets [10]: 2 μM and 1 μM and 1.5 μM and 2 (2) μM
- effect on the production of nitro derivatives [10]: high ability to inhibit

- Anti-free radicals: glutathione peroxidase [11]: stimulation
- Anti-free radicals: catalase [19]: stimulation
Substance: β-Glucan
- Anti-allergic: MLEC [12]: no effect
- Anti-free radicals: peroxidation of the lipids [13]: no effect
- Anti-inflammatory: IL-1α [14]: inhibition
- Anti-inflammatory: PGE2 [15]: inhibition
- Anti-inflammatory: TNF-α [16]: inhibition
- Anti-inflammatory: LTB4 [17]: no effect
- Anti-free radicals: NO [18]: inhibition
